The subject of series [1] is MRSA 33591. The series is described as follows: In vivo efficacy in neutropenic mice (thigh infection). The arrangement: species or system Staphylococcus aureus. The note with it: neutropenic male CD-1 mice, MRSA 33591 thigh infection, iv, 24 hours post-treatment. As for the experimental part: Animals (male CD-1 mice, 20-30 g) were acquired from Charles Rivers Laboratories (Gilroy, Calif.) and allowed access to food and water ad libitum. Neutropenia was induced via 200 mg/kg intraperitoneal (IP) injection of cyclophosphamide given four and two days prior to the inoculation of bacteria.
The organism used was either a susceptible or resistant strain of clinically relevant gram positive pathogens, such as methicillin-susceptible Staphylococcus aureus (MSSA 13709) and methicillin-resistant Staphylococcus aureus (MRSA 33591). The bacterial inoculum concentration was ˜10^6 CFU/mL. Animals were lightly anesthetized with isoflurane and […] of the bacterial inoculum was injected into the anterior thigh. One hour after the inoculation, animals were dosed intravenously with vehicle or the appropriate dose of the test compound. At 0 hours and 24 hours post-treatment, the animals were euthanized (CO2 asphyxiation) and the anterior and posterior thigh collected aseptically. The thigh was placed into 10 mL sterile saline and homogenized. Dilutions of the homogenate were plated onto triptic soy agar plates which were incubated overnight. The number of bacterial colonies on a given plate was multiplied by the dilution factor, divided by the thigh weight (in grams) and expressed as log CFU/g. […]

The conditions of series [2]: 5 wt. % dextrose buffer solution, titrated to pH 3, duplicate sample preparations.
Description: The aqueous solubility of a compound of this invention was determined using the following procedure. A 5 wt. % dextrose buffer solution at pH 2.2 was prepared by adding 1 mL of 1 N hydrochloric acid (Aldrich) to 99 mL of a 5 wt. % aqueous dextrose solution (Baxter).
A 1 mg/mL stock solution for calibration standards was then prepared by dissolving 1 mg of the test compound in 1 mL of DMSO. This solution was vortexed for 30 seconds and then sonicated for 10 minutes. The stock solution was then diluted with water to prepare calibration standards having the following concentrations: 50, 125, 250, 375 and 500 ug/mL.
Each test compound (30 mg) was weighed into a Millipore non-sterile, Ultrafree-MC 0.1 um filter unit (Millipore UFC30VVOO) and a magnetic stir bar was added to each unit. The 5 wt. % dextrose buffer solution (750 uL) was then added to each unit and these mixtures were vortexed for 5 minutes. The filter units were then placed in an Eppendorf tube rack and the tube rack was placed on top of a magnetic stirrer. […]
The calibration standards and the test samples were analyzed by reverse-phase HPLC using the following conditions:
The solubility of each test sample was calculated by comparing the peak area of the test sample to the calibration curve and multiplying by the dilution factor.
Series [3] deals with Methicillin-resistant S. epidermitis (MRSE) and other coagulase-negative staphylococci. The experiment in a line: Minimal inhibitory concentration (MIC90), broth microdilution, MRSE and other coagulase-negative staphylococci. It counts as cell-based, Staphylococcus epidermidis. The procedure: (§1) Minimal inhibitory concentration (MICs) assays were performed using the broth microdilution method set forth in NCCLS guidelines (see, NCCLS. 2000. Methods for Dilution Antimicrobial Susceptibility Tests for Bacteria That Grow Aerobically; Approved Standard—Fifth Ed., Vol. 20, No. 2). Bacterial strains were obtained from the American Type Tissue Culture Collection (ATCC), Stanford University Hospital (SU), Kaiser Permanente Regional Laboratory in Berkeley (KPB), Massachusetts General Hospital (MGH), the Centers for Disease Control (CDC), the San Francisco Veterans' Administration Hospital (SFVA) or the University of California San Francisco Hospital (UCSF). Vancomycin-resistant enterococci were phenotyped as Van A or Van B based on their sensitivity to teicoplanin. Some vancomycin-resistant enterococci that had been genotyped as Van A, Van B, Van C1 or Van C2 were also obtained from the Mayo Clinic.
(§2) In this assay, cryopreserved bacterial cultures of reference and clinical strains were streaked for isolation on appropriate agar medium (i.e., Trypticase Soy Agar, Trypticase Soy Agar with defibrinated sheep erthrocytes, Brain Heart Infusion Agar, Chocolate Agar). Following incubation to allow formation of colonies, these plates were sealed with parafilm and stored refrigerated for up to two weeks. […] The MIC was read visually as the lowest concentration well with no bacterial growth. […]
(In general: Broth dilution looks for growth in wells or tubes with falling amounts of substance.)

In series [4] the test system is methicillin-resistant S. aureus strains. The series is described as follows: Minimal inhibitory concentration (MIC), broth microdilution, individual MRSA strains. In kind it is cell-based, Staphylococcus aureus. As for the experimental part: as §1
In this assay, cryopreserved bacterial cultures of reference and clinical strains were streaked for isolation on appropriate agar medium (i.e., Trypticase Soy Agar, Trypticase Soy Agar with defibrinated sheep erthrocytes, Brain Heart Infusion Agar, Chocolate Agar). Following incubation to allow formation of colonies, these plates were sealed with parafilm and stored refrigerated for up to two weeks. For preparation of assay inocula and to ensure low variability, several colonies from a bacterial isolate cultured on the agar plates were pricked with an inoculating loop and aseptically transferred to Mueller-Hinton Broth (supplemented with divalent cations to required levels based on manufacturer's certification). The broth culture was grown overnight at 35° C., diluted in fresh prewarmed broth and grown to log phase; this is equivalent to a 0.5 MacFarland standard or 1×10^8 colony forming units per milliliter (CFU/mL). Not all cell suspensions, due to species variability, contained 1×10^8 CFU/mL when turbidity is equivalent to the MacFarland standard, therefore acceptable adjustments (based on NCCLS guidelines) were made in dilutions of different bacterial strains. […] The plates were then incubated 18-24 hours at 35° C. The MIC was read visually as the lowest concentration well with no bacterial growth. Bacterial growth is defined as more than three pinpoint colonies, a button of precipitated cells larger than 2 mm in diameter, or obvious turbidity.
Strains routinely tested in the initial screen included methicillin-sensitive Staphylococcus aureus (MSSA), methicillin-resistant Staphylococcus aureus (MRSA), Staphylococcus aureus producing penicillinase, methicillin-sensistive Staphylococcus epidermidis (MSSE), methicillin-resistant Staphylococcus epidermidis (MRSE), vancomycin-sensitive Enterococcus faecium (EFMVS), vancomycin-sensitive Enterococcus faecalis (EFSVS), vancomycin-resistant Enterococcus faecium also resistant to teicoplanin (EFMVR Van A), vancomycin-resistant Enterococcus faecium sensistive to teicoplanin (EFMVR Van B), vancomycin-resistant Enterococcus faecalis also resistant to teicoplanin (EFSVR Van A), vancomycin-resistant Enterococcus faecalis sensitive to teicoplanin (EFSVR Van B), penicillin-sensitive Streptococcus pneumoniae (PSSP) and penicillin-resistant Streptococcus pneumoniae (PSRP). Because of the inability of PSSP and PSRP to grow well in Mueller-Hinton broth, MICs with those strains were determined using either TS broth supplemented with defibrinated blood or Haemophilus test medium.

The subject of series [5] is Methicillin-resistant S. aureus (MRSA). The series is described as follows: Minimal inhibitory concentration (MIC90), broth microdilution, MRSA strains. It counts as cell-based, Staphylococcus aureus. As for the experimental part: as §1, §2
Series [6] has as its system MSSA 13709. The series is described as follows: Time-kill assay, MSSA 13709. In kind it is cell-based, Staphylococcus aureus. As for the experimental part: (§3) This time-kill assay is a method for measuring the rate of bactericidal activity of a test compound. […] A rapid time-kill is desirable to quickly prevent bacterial colonization and reduce host tissue damage.
(§4) Bacteria were diluted in prewarmed media in shake flasks and incubated with shaking (200 rpm, 35° C.). At 0, 1, 4, and 24 hours samples were withdrawn from the flasks and bacteria were enumerated by plate counting. Subsequent to the initial sampling, a compound to be assayed was added to the shake flask culture. Plate counts at these intervals previous to and following addition of the compound were expressed graphically in a time-kill curve.

Series [7] relates to MRSA 33591. The series is described as follows: Time-kill assay, MRSA 33591. It counts as cell-based, Staphylococcus aureus. As for the experimental part: as §3, §4

Three molecules from patent publication US6974797B2, “Cross-linked glycopeptide-cephalosporin antibiotics” (Theravance, Inc., priority 2001, dated 2005) can be followed below.

≈ marks a conversion by molar mass, not a printed value. Where only a bound is given, the exact number is not on record here.

In the case of `CNC(CC(C)C)C(=O)NC1C(=O)NC(CC(N)=O)C(=O)NC2C(=O)NC3C(=O)NC(C(=O)NC(C(=O)NCCCON=C(C(=O)NC4C(=O)N5C(C(=O)[O-])=C(C[n+]6ccccc6)CSC45)c4nc(N)sc4Cl)c4cc(O)cc(O)c4-c4cc3ccc4O)C(O)c3ccc(c(Cl)c3)Oc3cc2cc(c3OC2OC(CO)C(O)C(O)C2OC2CC(C)(N)C(O)C(C)O2)Oc2ccc(cc2Cl)C1O.Cl.Cl.Cl` (centres unmarked) [Compound 1], in series [1], the “ED50 (dose required to produce 50% of the maximum reduction in thigh titre)” value is listed as under 0.20 mg/kg. Besides, the aqueous solubility (commonly the dissolved amount per volume that the medium holds) in series [2] is reported as over 47.9 mg/mL. The “MIC90 (minimum inhibitory concentration for 90% of strains tested)” value in series [3] (MRSE and other coagulase-negative staphylococci, n = 34 strains) was under 0.1 µg/mL; in series [5] (n = 53 strains), under 0.1 µg/mL. Besides, the MIC result in series [4] (MRSA 33591), in series [4] (MRSA MED-84), in series [4] (MRSA MED-85), in series [4] (MRSA MED-86), in series [4] (MRSA MED-87) and in series [4] (MRSA MED-88) was “≦0.1 μg/mL” in each case. The MIC (usually the smallest concentration in the dilution series that meets the test's criterion for growth inhibition) in series [4] (MRSA MED-89) is “≦0.1 μg/mL”; in series [4] (MRSA MED-103) it was “≦0.1 μg/mL”; in series [4] (MRSA MED-104), 0.10 µg/mL; in series [4] (MRSA MED-107), “≦0.1 μg/mL”; in series [4] (MRSA MED-110), 0.20 µg/mL; in series [4] (MRSA MED-572) it was “≦0.1 μg/mL”. The “bactericidal concentration (≧3 log decrease in bacterial cell numbers)” value in series [6] (MSSA 13709, in 4 hours) was at most 1 μg/mL; in series [7] (MRSA 33591, in 4 hours), at most 1 μg/mL.
In the case of `CN[C@H](CC(C)C)C(=O)N[C@H]1C(=O)N[C@@H](CC(N)=O)C(=O)N[C@H]2C(=O)N[C@H]3C(=O)N[C@H](C(=O)N[C@H](C(=O)O)c4cc(O)cc(O)c4-c4cc3ccc4O)[C@H](O)c3ccc(c(Cl)c3)Oc3cc2cc(c3O[C@@H]2O[C@H](CO)[C@@H](O)[C@H](O)[C@H]2O[C@H]2C[C@](C)(N)[C@H](O)[C@H](C)O2)Oc2ccc(cc2Cl)[C@H]1O` [Vancomycin, vancomycin, reference compound], in series [1] (Staphylococcus aureus, read-out: ED50 (dose required to produce 50% of the maximum reduction in thigh titre)), the ED50 (in general, the dose that gives a 50% effect, or the effect in half of the subjects) was 9 mg/kg. Also, the MIC90 in series [3] (Staphylococcus epidermidis, MRSE, read-out: MIC90 (minimum inhibitory concentration for 90% of strains tested)) amounted to 4 µg/mL (≈ 2.76 µM); in series [5] (Staphylococcus aureus, read-out: MIC90 (minimum inhibitory concentration for 90% of strains tested)), 3 µg/mL (≈ 2.07 µM). Further, the “bactericidal concentration (≧3 log decrease in bacterial cell numbers)” value in series [6] (MSSA 13709, in 24 hours) is listed as 4 μg/mL; in series [7] (MRSA 33591, in 24 hours) it was 4 μg/mL.
For the molecule `CNC(CC(C)C)C(=O)NC1C(=O)NC(CC(N)=O)C(=O)NC2C(=O)NC3C(=O)NC(C(=O)NC(C(=O)NCCCON=C(C(=O)NC4C(=O)N5C(C(=O)[O-])=C(C[n+]6ccccc6)CSC45)c4csc(N)n4)c4cc(O)cc(O)c4-c4cc3ccc4O)C(O)c3ccc(c(Cl)c3)Oc3cc2cc(c3OC2OC(CO)C(O)C(O)C2OC2CC(C)(N)C(O)C(C)O2)Oc2ccc(cc2Cl)C1O` (centres unmarked) [Compound 34, reference compound], the MIC in series [4] (MRSA 33591) came to 0.17 µg/mL (≈ 0.0872 µM); in series [4] (MRSA MED-84) it was 0.29 µg/mL (≈ 0.149 µM); in series [4] (MRSA MED-85) it was 0.32 µg/mL (≈ 0.164 µM); in series [4] (MRSA MED-86), 0.29 µg/mL (≈ 0.149 µM); in series [4] (MRSA MED-87), 0.49 µg/mL (≈ 0.251 µM); in series [4] (MRSA MED-88), 0.34 µg/mL (≈ 0.174 µM). Also, the MIC in series [4] (MRSA MED-89) was 0.18 µg/mL (≈ 0.0924 µM); in series [4] (MRSA MED-103), 0.20 µg/mL (≈ 0.103 µM); in series [4] (MRSA MED-104) it was 0.58 µg/mL (≈ 0.298 µM); in series [4] (MRSA MED-107), 0.34 µg/mL (≈ 0.174 µM); in series [4] (MRSA MED-110), 0.49 µg/mL (≈ 0.251 µM); in series [4] (MRSA MED-572) it was under 0.1 µg/mL.
